The numbers were not newly measured in PMC12498288 (Frontiers in Immunology, 2025), which cites them from elsewhere.

This series deals with SARS-CoV-2. Also on record: method as in PMID 38319178. The note with it: hospitalized COVID-19 patients with a similar CSS as in RESPIRE; cited from earlier work.

As for `CC(C)C(=O)OC[C@H]1O[C@@H](n2ccc(NO)nc2=O)[C@H](O)[C@@H]1O` [molnupiravir], the viral load reduction entry is recorded as “no viral load reduction was observed”.
